Source: the supplement of paper PMC10307832

Legend:
Test in all cases: relative viability (nuclei count vs DMSO), 5 days (fraction); higher = more cells survive
NCI-H2023 = tested on: NCI-H2023
In short: (§1)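 Relative viability equals treated-well nuclei counts divided by vehicle-well nuclei counts. Counts came from 4× images of lung cancer cell lines grown in 1536-well plates for 5 days after pin-tool dosing on the day after seeding. Dosing used one drug alone or a fixed anchor-drug dose plus five library-drug doses (not always all listed) in √10 steps, and values are medians of duplicate plates.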

A-427 = tested on: A-427
In short: as §1

NCI-H1792 = tested on: NCI-H1792
In short: as §1

LC-2-ad = tested on: LC-2-ad
In short: as §1

CAL-12T = tested on: CAL-12T
In short: as §1

NCI-H1734 = tested on: NCI-H1734
In short: as §1

NCI-H520 = tested on: NCI-H520
In short: as §1

NCI-H2347 = tested on: NCI-H2347
In short: as §1

NCI-H2405 = tested on: NCI-H2405
In short: as §1

COR-L 105 = tested on: COR-L 105
In short: as §1

EPLC-272H = tested on: EPLC-272H
In short: as §1

NCI-H1915 = tested on: NCI-H1915
In short: as §1

NCI-H1395 = tested on: NCI-H1395
In short: as §1

NCI-H1563 = tested on: NCI-H1563
In short: as §1

SW 900 = tested on: SW 900
In short: as §1

HCC-44 = tested on: HCC-44
In short: as §1

NCI-H1975 = tested on: NCI-H1975
In short: as §1

NCI-H2342 = tested on: NCI-H2342
In short: as §1

NCI-H838 = tested on: NCI-H838
In short: as §1

SW 1573 = tested on: SW 1573
In short: as §1

HCC-15 = tested on: HCC-15
In short: as §1

LCLC-97TM1 = tested on: LCLC-97TM1
In short: as §1

UMC-11 = tested on: UMC-11
In short: as §1

CCNC(=O)c1noc(-c2cc(C(C)C)c(O)cc2O)c1-c1ccc(CN2CCOCC2)cc1 [Luminespib] + N=C(N)NC(=N)NCCc1ccccc1 [Phenformin] (partner 250 µM)
relative viability (NCI-H2023; first compound 0.002 µM): 0.39 | relative viability (NCI-H2023; first compound 0.006325 µM): 0.376 | relative viability (NCI-H2023; first compound 0.02 µM): 0.287 | relative viability (NCI-H2023; first compound 0.06325 µM): 0.0664 | relative viability (NCI-H2023; first compound 0.2 µM): 0.0658 | relative viability (A-427; first compound 0.002 µM): 0.354 | relative viability (A-427; first compound 0.006325 µM): 0.377 | relative viability (A-427; first compound 0.02 µM): 0.275 | relative viability (A-427; first compound 0.06325 µM): 0.101 | relative viability (A-427; first compound 0.2 µM): 0.128 | relative viability (NCI-H1792; first compound 0.002 µM): 0.265 | relative viability (NCI-H1792; first compound 0.006325 µM): 0.263 | relative viability (NCI-H1792; first compound 0.02 µM): 0.101 | relative viability (NCI-H1792; first compound 0.06325 µM): 0.0593 | relative viability (NCI-H1792; first compound 0.2 µM): 0.077 | relative viability (LC-2-ad; first compound 0.002 µM): 0.531 | relative viability (LC-2-ad; first compound 0.006325 µM): 0.497 | relative viability (LC-2-ad; first compound 0.02 µM): 0.551 | relative viability (LC-2-ad; first compound 0.06325 µM): 0.25 | relative viability (LC-2-ad; first compound 0.2 µM): 0.231 | relative viability (CAL-12T; first compound 0.002 µM): 0.578 | relative viability (CAL-12T; first compound 0.006325 µM): 0.512 | relative viability (CAL-12T; first compound 0.02 µM): 0.15 | relative viability (CAL-12T; first compound 0.06325 µM): 0.101 | relative viability (CAL-12T; first compound 0.2 µM): 0.0963 | relative viability (NCI-H1734; first compound 0.002 µM): 0.464 | relative viability (NCI-H1734; first compound 0.006325 µM): 0.356 | relative viability (NCI-H1734; first compound 0.02 µM): 0.3 | relative viability (NCI-H1734; first compound 0.06325 µM): 0.103 | relative viability (NCI-H1734; first compound 0.2 µM): 0.116 | relative viability (NCI-H520; first compound 0.002 µM): 0.634 | relative viability (NCI-H520; first compound 0.006325 µM): 0.537 | relative viability (NCI-H520; first compound 0.02 µM): 0.248 | relative viability (NCI-H520; first compound 0.06325 µM): 0.138 | relative viability (NCI-H520; first compound 0.2 µM): 0.191 | relative viability (NCI-H2347; first compound 0.002 µM): 0.406 | relative viability (NCI-H2347; first compound 0.006325 µM): 0.269 | relative viability (NCI-H2347; first compound 0.02 µM): 0.417 | relative viability (NCI-H2347; first compound 0.06325 µM): 0.381 | relative viability (NCI-H2347; first compound 0.2 µM): 0.198 | relative viability (NCI-H2405; first compound 0.002 µM): 0.417 | relative viability (NCI-H2405; first compound 0.006325 µM): 0.314 | relative viability (NCI-H2405; first compound 0.02 µM): 0.514 | relative viability (NCI-H2405; first compound 0.06325 µM): 0.193 | relative viability (NCI-H2405; first compound 0.2 µM): 0.196 | relative viability (COR-L 105; first compound 0.002 µM): 0.474 | relative viability (COR-L 105; first compound 0.006325 µM): 0.402 | relative viability (COR-L 105; first compound 0.02 µM): 0.337 | relative viability (COR-L 105; first compound 0.06325 µM): 0.154 | relative viability (COR-L 105; first compound 0.2 µM): 0.19 | relative viability (EPLC-272H; first compound 0.002 µM): 0.307 | relative viability (EPLC-272H; first compound 0.006325 µM): 0.291 | relative viability (EPLC-272H; first compound 0.06325 µM): 0.271 | relative viability (EPLC-272H; first compound 0.2 µM): 0.0832 | relative viability (NCI-H1915; first compound 0.002 µM): 0.361 | relative viability (NCI-H1915; first compound 0.006325 µM): 0.352 | relative viability (NCI-H1915; first compound 0.02 µM): 0.407 | relative viability (NCI-H1915; first compound 0.06325 µM): 0.293 | relative viability (NCI-H1915; first compound 0.2 µM): 0.0788 | relative viability (NCI-H1395; first compound 0.002 µM): 0.448 | relative viability (NCI-H1395; first compound 0.006325 µM): 0.401 | relative viability (NCI-H1395; first compound 0.02 µM): 0.39 | relative viability (NCI-H1395; first compound 0.06325 µM): 0.326 | relative viability (NCI-H1395; first compound 0.2 µM): 0.335 | relative viability (NCI-H1563; first compound 0.002 µM): 0.66 | relative viability (NCI-H1563; first compound 0.006325 µM): 0.649 | relative viability (NCI-H1563; first compound 0.02 µM): 0.597 | relative viability (NCI-H1563; first compound 0.06325 µM): 0.455 | relative viability (NCI-H1563; first compound 0.2 µM): 0.465 | relative viability (SW 900; first compound 0.002 µM): 0.625 | relative viability (SW 900; first compound 0.006325 µM): 0.489 | relative viability (SW 900; first compound 0.02 µM): 0.344 | relative viability (SW 900; first compound 0.06325 µM): 0.0721 | relative viability (SW 900; first compound 0.2 µM): 0.124 | relative viability (HCC-44; first compound 0.002 µM): 0.245 | relative viability (HCC-44; first compound 0.006325 µM): 0.163 | relative viability (HCC-44; first compound 0.02 µM): 0.119 | relative viability (HCC-44; first compound 0.06325 µM): 0.0759 | relative viability (HCC-44; first compound 0.2 µM): 0.11 | relative viability (NCI-H1975; first compound 0.002 µM): 0.401 | relative viability (NCI-H1975; first compound 0.006325 µM): 0.37 | relative viability (NCI-H1975; first compound 0.02 µM): 0.169 | relative viability (NCI-H1975; first compound 0.06325 µM): 0.118 | relative viability (NCI-H1975; first compound 0.2 µM): 0.118 | relative viability (NCI-H2342; first compound 0.002 µM): 0.549 | relative viability (NCI-H2342; first compound 0.006325 µM): 0.581 | relative viability (NCI-H2342; first compound 0.02 µM): 0.454 | relative viability (NCI-H2342; first compound 0.06325 µM): 0.606 | relative viability (NCI-H2342; first compound 0.2 µM): 0.355 | relative viability (NCI-H838; first compound 0.002 µM): 0.664 | relative viability (NCI-H838; first compound 0.006325 µM): 0.55 | relative viability (NCI-H838; first compound 0.02 µM): 0.257 | relative viability (NCI-H838; first compound 0.06325 µM): 0.107 | relative viability (NCI-H838; first compound 0.2 µM): 0.114 | relative viability (SW 1573; first compound 0.002 µM): 0.39 | relative viability (SW 1573; first compound 0.006325 µM): 0.339 | relative viability (SW 1573; first compound 0.02 µM): 0.262 | relative viability (SW 1573; first compound 0.06325 µM): 0.0845 | relative viability (SW 1573; first compound 0.2 µM): 0.0847 | relative viability (HCC-15; first compound 0.002 µM): 0.429 | relative viability (HCC-15; first compound 0.006325 µM): 0.405 | relative viability (HCC-15; first compound 0.02 µM): 0.311 | relative viability (HCC-15; first compound 0.06325 µM): 0.162 | relative viability (HCC-15; first compound 0.2 µM): 0.114 | relative viability (LCLC-97TM1; first compound 0.002 µM): 0.399 | relative viability (LCLC-97TM1; first compound 0.006325 µM): 0.374 | relative viability (LCLC-97TM1; first compound 0.02 µM): 0.426 | relative viability (LCLC-97TM1; first compound 0.06325 µM): 0.428 | relative viability (LCLC-97TM1; first compound 0.2 µM): 0.102 | relative viability (UMC-11; first compound 0.002 µM): 0.346 | relative viability (UMC-11; first compound 0.006325 µM): 0.338 | relative viability (UMC-11; first compound 0.02 µM): 0.291 | relative viability (UMC-11; first compound 0.06325 µM): 0.213 | relative viability (UMC-11; first compound 0.2 µM): 0.168
